Legend:
Format in all cases: in vivo
[1] = tested on: IL-10−/− mouse colitis model; test: Example 3: Formula (III) and anti-p40 combination in IL-10−/− mouse colitis model; settings: 21 days; Formula (III) 0.005% in chow, anti-p40 IP; vs no treatment control / either pathway alone
Description: The following experiments were run to evaluate the effects of a combination treatment of Formula (III) in combination with an anti-p40 antibody on the IL-10−/− mouse colitis model compared to the single treatment alone.
Female IL-10 deficient C57CL/6 mice (aged 12 weeks at study inception) were used in this study. All animal experiments were conducted according to Swiss animal well fare law and approved by the local animal welfare authority of Zurich County (Tierversuchskommission Zürich, Zurich, Switzerland, License No. ZH256-2014).
Mice were administered either standard chow diet (Harlan Teklad Global Diets 2014, TD2014) or standard chow diet plus 0.005% of Formula (III) in the chow. Formula (III)'s schedule was ad libitum while the anti-p40 antibody was administered via an intraperitoneal injection on day 1 and then every four days for three weeks.
The compound was added and mixed to the chow powder at 0.125% concentration, anti-p40 antibody was diluted in phosphate buffered saline (2 mg/mL) (anti-p40 antibody is a murine surrogate of ustekinumab) then dosed at either 2 mg/kg (low dose) or 4 mg/kg (high dose) every four days by intraperitoneal injection. […] The mice were then treated for three (3) weeks (21-days). On Day 21, mice were sacrificed, blood and tissue samples were collected for further analysis.
Experiments were conducted as describe in Experiment 2.

[2] = First-in-human Part B: plasma PK after once-daily dosing of Formula (III) for 14 days
Description: Part B (MAD Cohorts 6-10) consisted of up to 5 randomized, blinded (Sponsor-unblinded), placebo-controlled, MAD cohorts. Within each cohort 12 unique subjects were randomized 3:1 to receive blinded Formula (III) (N=9) or PTM Formula (III) (N=3). All subjects within each cohort received Formula (III) at the same dosing frequency.
Subjects enrolled in Part B received either blinded Formula (III) or PTM Formula (III) twice daily or once daily for 14 days. All subjects within each cohort received study drug at the same dosing frequency.
All study drugs in Part B (except Cohort 10 which will be administered under fasting conditions) were administered in the morning and evening following a standard meal (twice daily dosing), or only in the morning (daily dosing) following a standard meal except for Cohort 10.
Concentrations of Formula (III) and the metabolite, in plasma samples were determined using fully validated high-performance liquid chromatography-tandem mass spectrometry (LC-MS/MS) bioanalytical methods. All samples were analyzed in the timeframe supported by frozen stability storage data. The assays for Formula (III), and the metabolite were performed using methods validated by QPS, LLC (Newark, DE, USA).

[3] = First-in-human Part A: plasma PK after single ascending doses of Formula (III)
Description: This was a 3-part study to evaluate pharmacokinetics, safety, tolerability, and pharmacodynamics of the Formula (III) compound in healthy volunteers. • To understand the single-dose PK, safety, tolerability, and PD of Formula (III) and its active metabolite, subjects in Part A received a single dose of Formula (III) in the fasting state in a dose-escalating manner. […]
Formula (III) is a prodrug of Formula (I). Plasma concentrations of Formula (III) metabolite was determined, and PK parameters estimated. Plasma concentrations of Formula (III) and/or its metabolites were determined, and PK explored, as appropriate.
Concentrations of Formula (III) and the metabolite, in plasma samples were determined using fully validated high-performance liquid chromatography-tandem mass spectrometry (LC-MS/MS) bioanalytical methods. All samples were analyzed in the timeframe supported by frozen stability storage data. […]

CCOC(=O)[C@H](Cc1ccc(-n2c(=O)c3ccncc3n(C)c2=O)c2ncccc12)NC(=O)c1c(C)cc(N2CCOC[C@@H]2C(F)(F)F)cc1F (atropisomer, axis not shown) [Formula (III)]
body weight loss [1]: improved body weight loss | metabolite multiple-dose exposure, 200-mg tablet fasting versus 500-mg nonfasting capsule [2]: slightly lower | plasma exposures of the prodrug Formula (III) compared with the active metabolite [3]: negligible

From patent US20250228864A1, “THERAPIES FOR THE TREATMENT OF INFLAMMATORY BOWEL DISEASE” (Gilead Sciences, Inc., priority 2023, published 2025)
